# “Also recorded” adds a separate entry of the source. Read-outs that look alike come from different tables or passages of the source.
# Experiments:
# [1] = reference cmax used for potency; cited from earlier work
# [2] = system: NSCLC microtumors (A549 NSCLC cells with human lung fibroblasts Wi38); test: Non-small cell lung cancer (NSCLC) microtumor size/growth assay; assay type: cell-based; conditions: for Response: 14 days window; for effect on NSCLC microtumor growth: dosed 2× for 8h with 48h gap (FIG. 6, FIG. 11); for efficacy: impact on tumor growth: Vinorelbin high concentration vs low and high concentrated Docetaxel, dosed 2× for 8h with an 8h gap (FIG. 13B, D)
# Protocol: The NSCLC model was produced by mixing A549 NSCLC cells (ATCC® CCL-18S™) with human lung fibroblasts (Wi38, ATCC® CCL-7S™) in a non-adhesive 96-well plate (GravityTRAP™). Drugs were dosed 2× for 8h with 48h gap.
# Single and drug combinations were dosed 2× for 8h with a gap of 48h and growth monitored over time.
# (§1) FIG. 13 exemplifies tox testing of single drugs using connective/stromal microtissues (Wi38) and efficacy testing on non-small cell tumor microtissues (A549; Wi38). Vinorelbin and Docetaxel, both disrupting microtubule, were dosed 2× for 8h with an 8h gap.
# [3] = system: pancreatic microtumors from pancreatic cancer cell line Panc-1 in co-culture with mouse fibroblast cell line NIH3T3; test: Pancreatic microtumor (3D microtissue) size/growth assay; conditions: for Response: 14 days window; for ΔT14/ΔC14: day 14; for effect on pancreatic microtumor growth: dosed for 8h with a 48h gap (FIG. 5)
# Protocol: Both cells were expanded in cell culture flasks using Dulbecco's modification of Eagle medium (DMEM) supplemented with 10% fetal calf serum. After reaching confluency the were removed from the cell culture flask enzymatic digestion (Trypsin). Cell numbers of both cell types were assessed using a Neubauer chamber, and the respective cell number mixed to produce the co-culture microtumors. Seventy ul of the cell mixture was inoculated in each well of a non-adhesive 96-well plates (GravityTRAP™) using Dulbecco's modification of Eagle medium (DMEM) supplemented with 10% horse serum. Pancreatic microtumors were matured in a mammalian cell culture incubator at 37° C. with 5% CO2. […] After 48 hours the drug was removed by changing the culture medium with drug-free medium. The size of the pancreatic microtumors was monitored prior dosing and continuously after dosing using bright field microscopy. Growth is presented relative to the size of the pancreatic tumor microtissue prior compound treatment t0 (adapted from the RECIST criteria).
# All drugs used were dissolved according to the manufactures protocol.
# [4] = system: microtumors from NSCLC cells directly derived from patients (NSCLC resection); test: Patient-derived NSCLC microtumor growth assay; assay type: cell-based, human; conditions: dosed 2× for 8h with a 48h gap (FIG. 12)
# Protocol: A NSCLC resection was dissociated, and the cell Suspension used to produce microtumors in a multi-well format (FIG. 12A). Drugs were dosed 2× for 8h with a 48h gap.
# [5] = system: connective/stromal microtissues (Wi38); test: Tox testing on connective/stromal microtissues; assay type: cell-based, human; conditions: dosed 2× for 8h with an 8h gap (FIG. 13A, C)
# Protocol: as §1
structure (smiles),measurement,setting,value
Nc1ccn([C@@H]2O[C@H](CO)[C@@H](O)C2(F)F)c(=O)n1 [Gemcitabine],median cmax,[1],(median cmax = 20 ug/ml)
same,Time to MR (TMR),[2]; Gemcitabine 0.1 ug/ml,14 days
same,Response,[2]; Gemcitabine 0.1 ug/ml,RE (≥20% decrease in microtumor size)
same,ΔT14/ΔC14,"[2]; Gemcitabine 0.1 ug/ml, day 14",−2.72
same,Time to MR (TMR),[2]; Gemcitabine 0.3 ug/ml,14 days
same,Response,[2]; Gemcitabine 0.3 ug/ml,RE (≥20% decrease in microtumor size)
same,ΔT14/ΔC14,"[2]; Gemcitabine 0.3 ug/ml, day 14",−4.04
same,Time to MR (TMR),[2]; Gemcitabine 0.5 ug/ml,14 days
same,Response,[2]; Gemcitabine 0.5 ug/ml,RE (≥20% decrease in microtumor size)
same,ΔT14/ΔC14,"[2]; Gemcitabine 0.5 ug/ml, day 14",−3.87
same,Time to MR (TMR),[3]; Gemcitabine 0.1 ug/ml,10 days
same,Time until relapse (TR),[3]; Gemcitabine 0.1 ug/ml,10 days
same,Response,[3]; Gemcitabine 0.1 ug/ml,SR (+/−20% increase/decrease in size)
same,ΔT14/ΔC14,"[3]; Gemcitabine 0.1 ug/ml, treatment effect to untreated control",−0.25
same,Time to MR (TMR),[3]; Gemcitabine 0.5 ug/ml,10 days
same,Time until relapse (TR),[3]; Gemcitabine 0.5 ug/ml,10 days
same,Response,[3]; Gemcitabine 0.5 ug/ml,SR (+/−20% increase/decrease in size)
same,ΔT14/ΔC14,[3]; Gemcitabine 0.5 ug/ml,−0.23
same,effect on pancreatic microtumor growth,[3],unfolds its effect quickly
same,day after which treated microtumors relapsed,[3]; dosed for 8h with a 48h gap (FIG. 5A),> 10 days
O=C1CCC(N2C(=O)c3ccccc3C2=O)C(=O)N1 (stereo not drawn) [Thalidomide],effect on NSCLC microtumor growth,[2],no significant impact on tumor growth remission
same,"impact on tumor growth, single doses",[4],hardly an impact on tumor growth
Nc1nc2[nH]cc(CCc3ccc(C(=O)N[C@@H](CCC(=O)O)C(=O)O)cc3)c2c(=O)[nH]1 [Pemetrexed],effect on NSCLC microtumor growth,[2],tumor remission
same,effect on pancreatic microtumor growth,[3],did not affect tumor growth; also recorded: not active
CC(=O)O[C@@]12CO[C@@H]1C[C@H](O)[C@@]1(C)C(=O)[C@H](O)C3=C(C)[C@@H](OC(=O)[C@H](O)[C@@H](NC(=O)OC(C)(C)C)c4ccccc4)C[C@@](O)([C@@H](OC(=O)c4ccccc4)[C@H]21)C3(C)C [Docetaxel],cytotoxicity on stromal microtissues compared to untreated control,[5]; 4.05 ug/ml,less toxicity
same,efficacy: impact on tumor growth,[2],higher efficacy
same,effect on pancreatic microtumor growth,[3],much slower
same,sustainability of response,"[3]; dosed for 8h with a 48h gap, compared with Gemcitabine (FIG. 5A)",more sustainable
CCC1=C[C@@H]2CN(C1)Cc1c([nH]c3ccccc13)[C@@](C(=O)OC)(c1cc3c(cc1OC)N(C)[C@H]1[C@@](O)(C(=O)OC)[C@H](OC(C)=O)[C@]4(CC)C=CCN5CC[C@]31[C@@H]54)C2 [Vinorelbin],cytotoxicity on stromal microtissues compared to untreated control,[5]; high dose 0.68 ug/ml,elevated cytotoxicity
same,efficacy: impact on tumor growth,[2],less impact on tumor growth
CCc1c2c(nc3ccc(OC(=O)N4CCC(N5CCCCC5)CC4)cc13)-c1cc3c(c(=O)n1C2)COC(=O)[C@]3(O)CC [Irinotecan],median cmax,[1],(median cmax = 5 ug/ml)
same,ΔT14/ΔC14,[2],−0.32
same,Time to MR (TMR),[2]; Irinotecan 6.75 ug/ml,4 days
same,Time until relapse (TR),[2]; Irinotecan 6.75 ug/ml,5 days
same,ΔT14/ΔC14,"[2]; Irinotecan 6.75 ug/ml, day 14",−0.60
same,Time to MR (TMR),[2]; Irinotecan 27 ug/ml,14 days
same,Response,[2]; Irinotecan 27 ug/ml,RE (≥20% decrease in microtumor size)
same,ΔT14/ΔC14,"[2]; Irinotecan 27 ug/ml, day 14",−3.09
same,Response,[3]; Irinotecan 0.675 ug/ml,PR (≥20%-100% increase in microtumor size)
same,ΔT14/ΔC14,[3]; Irinotecan 0.675 ug/ml,1.04
same,Time to MR (TMR),[3]; Irinotecan 6.75 ug/ml,7 days
same,Time until relapse (TR),[3]; Irinotecan 6.75 ug/ml,7 days
same,Response,[3]; Irinotecan 6.75 ug/ml,SR (+/−20% increase/decrease in size)
same,ΔT14/ΔC14,[3]; Irinotecan 6.75 ug/ml,0.06
same,Time to MR (TMR),[3]; Irinotecan 67.5 ug/ml,14 days
same,Response,[3]; Irinotecan 67.5 ug/ml,RE (≥20% decrease in microtumor size)
same,ΔT14/ΔC14,[3]; Irinotecan 67.5 ug/ml,−0.36
same,dose to growth correlation,"[3]; indicated concentrations, drug removed after 48 hours, growth relative to size at t0 (FIG. 4)",clear correlation of dose to growth
C#Cc1cccc(Nc2ncnc3cc(OCCOC)c(OCCOC)cc23)c1 [Erlotinib],effect on NSCLC microtumor growth,[2],reduced growth
same,time after which growth relapses,[2]; dosed 2× for 8h with a gap of 48h (FIG. 11),> 7 days
same,"impact on tumor growth, single doses",[4],hardly an impact on tumor growth

# — patent US20210396738A1, “3D HUMAN CANCER MODEL-BASED COMBINATORIAL DRUG DEVELOPMENT METHOD” (PreComb Therapeutics AG, priority 2018, published 2021)
